biological target: T1, Farnesyl pyrophosphate synthase (Homo sapiens, UniProt P14324); assay: Inhibition Assay; settings: pH 7.4; 25 °C
T1 sequence (P14324 whole entry): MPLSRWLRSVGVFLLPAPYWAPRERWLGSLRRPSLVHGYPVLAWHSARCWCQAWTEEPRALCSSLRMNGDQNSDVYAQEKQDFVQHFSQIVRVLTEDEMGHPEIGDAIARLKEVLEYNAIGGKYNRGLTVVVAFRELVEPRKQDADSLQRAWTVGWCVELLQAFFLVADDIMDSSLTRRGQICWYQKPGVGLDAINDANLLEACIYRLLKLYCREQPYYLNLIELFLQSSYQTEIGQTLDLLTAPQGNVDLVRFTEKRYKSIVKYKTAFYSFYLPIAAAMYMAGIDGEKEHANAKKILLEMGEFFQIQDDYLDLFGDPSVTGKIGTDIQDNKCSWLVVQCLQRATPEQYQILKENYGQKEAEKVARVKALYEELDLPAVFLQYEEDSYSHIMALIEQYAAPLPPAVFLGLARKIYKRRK
Text: Human FPPS was expressed and purified and inhibition assays carried out as described previously.

SMILES | IC50 [µM]
NC(=O)c1cc(NC(=O)c2ccc(C(=O)Nc3cc(C(N)=O)cc(C4=NCCN4)c3)cc2)cc(C2=NCCN2)c1 [100873, 18] | 10.7
Nc1c(C(=O)Nc2ccc(C3=NCCN3)cc2)cccc1C(=O)Nc1ccc(C2=NCCN2)cc1 [72564, 22] | 22.3
Nc1cc(C(=O)Nc2ccc(C3=NCCN3)cc2)ccc1C(=O)Nc1ccc(C2=NCCN2)cc1 [50469, 20] | 20.3
O=C(Nc1ccc(C2=NCCN2)c(O)c1)c1ccc(C(=O)Nc2ccc(C3=NCCN3)c(O)c2)cc1 [76527, 23] | 35
O=C(Nc1cccc(C2=NCCN2)c1)c1ccc(-c2ccc(C(=O)Nc3cccc(C4=NCCN4)c3)cc2)cc1 [50460, 14] | 1.8
CC1CNC(c2ccc(NC(=O)c3ccc(C(=O)Nc4ccc(C5=NC(C)CN5)cc4)c(N)c3)cc2)=N1 (stereo unspecified) [66761, 16] | 2.5
Nc1cc(C(=O)Nc2cccc(C3=NCCN3)c2)ccc1C(=O)Nc1cccc(C2=NCCN2)c1 [50464, 21] | 21
O=C(Nc1ccccc1C1=NCCN1)c1ccc(C(=O)Nc2ccccc2C2=NCCN2)cc1 [35844, 17] | 7
O=C(Nc1ccc(C2=NCCN2)cc1)c1ccc(C(=O)Nc2ccc(C3=NCCN3)cc2)c([NH+]([O-])O)c1 (stereo unspecified) [60340, 13] | 109
O=C(Nc1cccc(C2=NCCN2)c1)c1ccc(C(=O)Nc2cccc(C3=NCCN3)c2)cc1 [35839, 19] | 13.7
O=C(Nc1ccc(C2=NCCN2)cc1)c1cccc(C(=O)Nc2ccc(C3=NCCN3)cc2)c1 [53212, 15] | 1.9
